{
  "source": "patent US12257245B2",
  "about": "“Methods and compositions for inhibition of EGF/EGFR pathway in combination with anaplastic lymphoma kinase inhibitors” (In3Bio Ltd., priority 2018, dated 2025)",
  "key": {"ALK": {"target": "ALK (Homo sapiens, UniProt Q9UM73)", "sequence (Q9UM73 19-1620)": "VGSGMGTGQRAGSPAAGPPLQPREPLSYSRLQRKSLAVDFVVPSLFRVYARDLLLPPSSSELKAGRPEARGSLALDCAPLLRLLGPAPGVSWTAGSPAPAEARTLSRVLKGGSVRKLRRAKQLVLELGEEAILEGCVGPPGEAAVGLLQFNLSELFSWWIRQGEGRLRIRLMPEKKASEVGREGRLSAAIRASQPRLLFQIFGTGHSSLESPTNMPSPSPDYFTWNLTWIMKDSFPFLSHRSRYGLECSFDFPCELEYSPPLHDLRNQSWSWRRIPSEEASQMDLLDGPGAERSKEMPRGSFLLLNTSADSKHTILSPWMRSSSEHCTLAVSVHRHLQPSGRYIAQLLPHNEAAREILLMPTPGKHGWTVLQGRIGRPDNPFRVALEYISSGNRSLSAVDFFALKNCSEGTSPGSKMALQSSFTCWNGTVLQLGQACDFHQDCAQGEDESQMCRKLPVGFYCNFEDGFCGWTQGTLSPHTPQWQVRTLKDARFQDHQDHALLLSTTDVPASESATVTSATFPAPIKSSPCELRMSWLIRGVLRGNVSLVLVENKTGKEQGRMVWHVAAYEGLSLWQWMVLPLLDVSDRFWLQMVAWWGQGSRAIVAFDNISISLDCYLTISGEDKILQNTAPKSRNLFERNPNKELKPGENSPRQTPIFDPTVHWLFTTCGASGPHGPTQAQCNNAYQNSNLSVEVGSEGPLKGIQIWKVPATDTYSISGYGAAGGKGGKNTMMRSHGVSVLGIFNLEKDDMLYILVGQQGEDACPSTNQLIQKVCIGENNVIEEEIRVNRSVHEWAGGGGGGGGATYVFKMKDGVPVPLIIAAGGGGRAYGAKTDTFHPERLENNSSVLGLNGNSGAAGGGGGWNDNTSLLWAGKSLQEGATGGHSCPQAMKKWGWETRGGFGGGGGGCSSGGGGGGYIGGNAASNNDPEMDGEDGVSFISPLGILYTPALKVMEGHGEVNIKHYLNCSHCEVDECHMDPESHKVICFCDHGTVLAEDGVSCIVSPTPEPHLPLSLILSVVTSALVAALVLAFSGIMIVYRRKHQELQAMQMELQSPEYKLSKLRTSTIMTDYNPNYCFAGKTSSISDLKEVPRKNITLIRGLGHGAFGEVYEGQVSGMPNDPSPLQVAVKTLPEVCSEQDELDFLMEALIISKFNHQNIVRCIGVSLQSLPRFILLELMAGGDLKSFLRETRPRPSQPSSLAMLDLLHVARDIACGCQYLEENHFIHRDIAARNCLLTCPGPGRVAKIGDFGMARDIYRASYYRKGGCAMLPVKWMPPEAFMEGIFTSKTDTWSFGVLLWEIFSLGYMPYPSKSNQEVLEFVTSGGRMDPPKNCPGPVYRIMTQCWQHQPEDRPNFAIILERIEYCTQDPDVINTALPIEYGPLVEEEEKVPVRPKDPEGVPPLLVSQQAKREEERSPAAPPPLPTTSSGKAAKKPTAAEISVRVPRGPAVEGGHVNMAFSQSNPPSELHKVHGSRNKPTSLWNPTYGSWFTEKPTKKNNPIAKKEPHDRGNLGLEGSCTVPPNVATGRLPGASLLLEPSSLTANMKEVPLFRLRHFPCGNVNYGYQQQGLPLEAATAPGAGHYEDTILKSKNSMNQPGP", "settings": "cited from earlier work"}, "[1]": {"settings": "in vivo; cited from earlier work"}, "[2]": {"tested_on": "pEGFR (TYR 1068), pSTAT3 (TYR 705), pAKT (SER 473), pERK1/2 (THR 202/TYR 204) in DLD1 cells", "experiment": "Western blot of signaling in DLD1 cells", "type": "cell-based", "settings": "2 hour (BVN22E antibodies alone: 2 and 24 hour)", "method": "The effects of BVN22E antibodies were investigated in DLD1 cells via Western Blots, see FIGS. 42 and 43.\nThe effect of Trametinib treatment in the DLD1 cell line was also assessed in a western blot assay and the results are presented in FIG. 45. […] Inhibition of pStat3 and pERK1/2 were observed, though only at concentrations beyond the physiological concentrations of Trametinib used in patients.\nBVN22E antibodies alone inhibited phosphorylation of EGFR."}},
  "data": [
    {"smiles": "C[C@@H]1CN(C(=O)c2ccc(NC(=O)c3cc(O[C@H](C)c4c(Cl)ccc(F)c4Cl)c(N)nn3)cc2)C[C@H](C)N1", "note": "[Ensartinib]", "values": [
      {"measurement": "IC50", "setting": "ALK", "result": "< 0.4", "unit": "nM"}
    ]},
    {"smiles": "Cc1cc(Nc2ncc(Cl)c(Nc3ccccc3S(=O)(=O)C(C)C)n2)c(OC(C)C)cc1C1CCNCC1", "note": "[Ceritinib]", "values": [
      {"measurement": "potency for inhibiting alk compared with crizotinib", "setting": "ALK; relative to crizotinib", "result": 20, "unit": "times"}
    ]},
    {"smiles": "C[C@H]1Oc2cc(cnc2N)-c2c(nn(C)c2C#N)CN(C)C(=O)c2ccc(F)cc21", "note": "[Lorlatinib]", "values": [
      {"measurement": "CNS penetration", "setting": "[1]", "result": "highly CNS-penetrant"}
    ]},
    {"smiles": "CC(=O)Nc1cccc(-n2c(=O)n(C3CC3)c(=O)c3c(Nc4ccc(I)cc4F)n(C)c(=O)c(C)c32)c1", "note": "[Trametinib]", "values": [
      {"measurement": "pEGFR", "setting": "[2]", "result": "no effect"}
    ]}
  ]
}
